Legend:
human Erα = target: T1, human Erα (Homo sapiens, UniProt P03372); experiment: ERα transactivation (CHO, ERE-LUC); type: cell-based
T1 construct: host or cells: CHO, transient co-transfection
Description: The CHO cell line was selected to express estrogen α and β protein and the gene expression under the tested compounds stimulation was analyzed. The co-transfection with vector encoding the human full-length steroid receptors hERα and hERβ and reporter vector ERE/LUC was performed. Transient and stable transfectants with protein overexpression were induced by tested compounds (17β-estradiol or EC313) or the mixture: estradiol and appropriate range of concentration of EC313. Agonist and antagonist properties of EC313 toward tested receptor ERα and ERβ were analyzed using luminescence detection.
Plasmid included vectors coding sequences for the receptor as well as the reporter gene. […]
The ability of EC313 to agonize and/or antagonize ER receptor expression was analyzed in the following test system: co-transfected CHO cells were stimulated with estradiol (0.009 nM - 1200 nM) and EC313 (0.009 nM - 1200 nM) for detection agonistic activity. The antagonistic activity was assessed during the competitive interaction between EC313 (0.009 nM - 1200nM) and an appropriate concentration of estradiol (see Table 3 ). […] After incubating the cells for 24h with the tested compounds, the luminescent signal generated by the luciferase activity was detected.

[1] = target: T2, ligand binding domain of the human androgen receptor (AR-LBD) (Homo sapiens, UniProt P10275); experiment: Competitive binding, AR ligand binding domain
T2 construct: purchased Thermo Fisher Scientific
Description: The study aimed to characterize the competitive binding profile of EC313 to relevant human nuclear receptors. For the assays, commercially available ‘ligand binding domain’ proteins were purchased (Thermo Fisher Scientific). In addition, the full-length receptor proteins were expressed in transfected HI insect cells using the `Bac-to-bac Baculovirus expression system´ (Thermo Fisher Scientific). Cellular lysates served as receptor preparation. Receptor protein preparations were incubated with tritiated reference ligands and EC313 or reference steroids at concentrations between 0.1 and 1000 nM for 2h at 4°C to reach equilibrium. Subsequently, unbound steroids were adsorbed to dextran-coated charcoal (Sigma Aldrich), separated by filtration, and the remaining radioactivity was quantified in a ß-counter (Perkin Elmer). Displacement curves were fitted using the GraphPad Prism 7 free version to obtain EC50 values. Relative binding affinity (RBA [%], (C50ref/C50test)*100) and the competition coefficient (C50test/C50ref) were used to describe the relative binding potency of EC313 compared to the reference ligands.

human PR-B receptor = target: T3, human PR-B receptor (Homo sapiens, UniProt P06401); experiment: PR-B transactivation (CHO, MMTV-LUC); type: cell-based
T3 sequence (P06401 1-933): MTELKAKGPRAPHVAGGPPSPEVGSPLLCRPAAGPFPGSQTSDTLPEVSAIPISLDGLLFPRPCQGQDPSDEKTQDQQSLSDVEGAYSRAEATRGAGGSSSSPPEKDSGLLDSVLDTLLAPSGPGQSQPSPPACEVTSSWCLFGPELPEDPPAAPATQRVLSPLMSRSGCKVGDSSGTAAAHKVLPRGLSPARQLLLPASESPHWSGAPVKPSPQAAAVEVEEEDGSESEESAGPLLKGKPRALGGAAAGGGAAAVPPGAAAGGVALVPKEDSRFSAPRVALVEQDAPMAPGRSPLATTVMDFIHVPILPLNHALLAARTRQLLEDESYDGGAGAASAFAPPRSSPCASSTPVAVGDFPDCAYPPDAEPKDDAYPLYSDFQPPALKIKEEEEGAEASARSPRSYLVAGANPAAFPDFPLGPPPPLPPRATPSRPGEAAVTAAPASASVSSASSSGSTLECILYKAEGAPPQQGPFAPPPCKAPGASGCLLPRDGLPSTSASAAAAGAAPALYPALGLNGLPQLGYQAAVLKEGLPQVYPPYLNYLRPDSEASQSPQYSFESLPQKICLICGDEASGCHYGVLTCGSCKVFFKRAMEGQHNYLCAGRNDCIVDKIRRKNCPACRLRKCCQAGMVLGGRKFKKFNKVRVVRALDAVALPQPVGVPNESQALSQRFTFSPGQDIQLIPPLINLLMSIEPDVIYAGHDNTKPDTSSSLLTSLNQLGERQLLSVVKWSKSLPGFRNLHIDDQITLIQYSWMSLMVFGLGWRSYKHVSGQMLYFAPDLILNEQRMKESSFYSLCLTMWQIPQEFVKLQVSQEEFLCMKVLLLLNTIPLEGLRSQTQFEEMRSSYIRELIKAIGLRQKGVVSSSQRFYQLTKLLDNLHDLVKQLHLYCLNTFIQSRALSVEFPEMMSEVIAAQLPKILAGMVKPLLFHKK
Description: The vector pcDNA3.1 coding sequence for the full length of human PRA and PRB (cDNA ORF clone in pcDNA3.1+/C-(K)-DYK) was used as an expression vector for PR isoform A and B, respectively. Vector pGL4.36 coding for the progesterone responsive element MMTV and firefly luciferase reporter vector [luc2P/Hygro] were used as reporter systems (pGL4.36-MMTV/LUC).
A sufficient transactivation signal was achieved using stable transfection for the human PRA and PRB receptors and transient transfection for the MMTV-luciferase reporter gene. Therefore, the first stable transfection with the receptor of interest was performed. Thus, 0.5x10^6 CHO cells per well were plated into 6-well plates in transfection medium w/o antibiotics (RPMI phenol-free, 10% FBS,2mM L-glutamine). When the cells reached 80% confluency, transfection with receptor using FuGENE 6 in Opti-MEM medium was accomplished according to the manufacturer’s instruction. After 48h of transfection, stably transfected cells were cultured in a growth medium containing an antibiotic (G418 500 µg/mL). Only cells with the resistance gene (resistance to G418), which had been transfected together with the DNA for PRA and PRB were able to grow in this medium. Consequently, growing cell clones were selected for further steps as stable transfectants. The CHO cells stably transfected with the expression of PRA or PRB were transiently transfected with promoter MMTV/LUC vectors. For this purpose, cells with a density of 12.5x10^3 per well in a 96-well plate were transfected using transfection reagent FuGENE and Opti-MEM medium, following the manufacturer’s instructions. The recovery of cells lasted 24h and they were then moved into the culture medium and treated for 24h with test compounds.
After 24h incubation of cells with tested compounds, luciferase activity was measured using a VICTOR™ X Multilabel Plate Reader -Perkin Elmer.

[2] = system: adrenalectomized male Wistar rats; experiment: Thymus-Involution-Test in adrenalectomized rats; type: in vivo, rat; conditions: doses up to 100 mg/animal/day s.c., 4 days
Description: The standard Thymus-Involution-Test in rats was used. […] On day 5 the animals were sacrificed, and the thymus and spleen weights were determined. Reduced weight of the thymus indicated glucocorticoid activity. Stopping the dexamethasone-induced thymus reduction by the test compound indicated anti-glucocorticoid activity.

T47D cells = experiment: Proliferation / arrest in Go/G1 in T47D cells; type: cell-based, human; parameters: key to Arrest in Go/G1: ↓/↑ - decreased/increased action of tested compounds.; ↓/↑ - decreased/increased action of tested compounds

T2 sequence (P10275 669-900 limits assumed): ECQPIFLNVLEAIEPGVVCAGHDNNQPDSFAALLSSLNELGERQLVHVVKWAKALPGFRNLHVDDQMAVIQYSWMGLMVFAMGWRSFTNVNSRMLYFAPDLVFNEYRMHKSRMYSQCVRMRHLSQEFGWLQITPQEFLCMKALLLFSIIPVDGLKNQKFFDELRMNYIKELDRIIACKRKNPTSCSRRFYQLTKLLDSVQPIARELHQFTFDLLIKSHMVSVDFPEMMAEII
T1 sequence (P03372 whole entry): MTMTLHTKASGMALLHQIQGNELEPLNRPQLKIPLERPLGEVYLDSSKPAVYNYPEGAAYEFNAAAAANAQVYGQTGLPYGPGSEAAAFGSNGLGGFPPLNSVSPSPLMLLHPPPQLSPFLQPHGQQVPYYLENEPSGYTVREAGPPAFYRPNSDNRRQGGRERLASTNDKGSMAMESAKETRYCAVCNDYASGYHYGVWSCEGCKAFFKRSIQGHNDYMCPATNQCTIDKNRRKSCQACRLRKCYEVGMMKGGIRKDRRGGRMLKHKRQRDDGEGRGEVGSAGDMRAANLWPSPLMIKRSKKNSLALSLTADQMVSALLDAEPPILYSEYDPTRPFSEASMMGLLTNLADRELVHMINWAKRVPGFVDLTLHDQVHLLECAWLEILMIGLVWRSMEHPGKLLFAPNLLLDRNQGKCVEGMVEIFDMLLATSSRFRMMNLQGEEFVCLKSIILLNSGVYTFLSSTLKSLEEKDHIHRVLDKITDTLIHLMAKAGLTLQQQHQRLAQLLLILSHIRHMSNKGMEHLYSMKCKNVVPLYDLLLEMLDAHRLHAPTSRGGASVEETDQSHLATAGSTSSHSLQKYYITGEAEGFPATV

## C[C@]12C[C@H](c3ccc(-c4ccoc4)cc3)C3=C4CCC(=O)C=C4CC[C@H]3[C@@H]1CC[C@]21OCCC1=C(F)F [EC313]
Human Erα
  agonistic or antagonistic activity: no agonistic or antagonistic activity
[1]; AR-LBD
  IC50: 1060 nM
[1]; EC313 relative to Metribolone
  AR-LBD Comp. Coefficient: 17
Human PR-B receptor; PR-B antagonism
  potency relative to Mifepristone: approximately 13%
Human PR-B receptor; PR-B, high nM concentrations
  agonistic activity: Only marginal agonistic activity
Human PR-B receptor; PR-B, set of 6 experiments, Promegestone 1.0 nM, read-out: average IC50, antagonism
  IC50: 2.5 ± 0.7 nM
[2]
  glucocorticoid / anti-glucocorticoid activity (thymus weight): neither glucocorticoid nor anti-glucocorticoid activities
T47D cells
  estradiol-induced proliferation of T47D: counteracts the estradiol-induced proliferation of T47D
T47D cells; Proliferation, T47D cells, statistical significance not always reached
  Arrest in Go/G1: ↑
